Read-outs that look alike come from different tables or passages of the source.
How the values were obtained:
[1] = tested on: men presenting with premature ejaculation (PE) as defined in the DSM IV; assay: Ejaculatory latency (stopwatch, intromission to ejaculation) in randomized, double-blind, three way crossover evaluation of prn dapoxetine; type: in vivo, human; conditions: for Percentage of patients achieving increases of at least one minute in EL: placebo 14%; for Increase of mean ejaculatory latency from baseline: placebo group 24 seconds
Procedure: The results of an interim analysis of a randomized, double-blind, three way crossover evaluation of two prn doses of dapoxetine (20 mg and 40 mg) in the treatment of premature ejaculation (hereinafter referred to as “PE”) are disclosed in tables 8a and 8b. Each patient is assigned to receive 4 to 6 administrations of each of the 3 study doses, in a random order, over 3 periods of not more than 4 weeks each. The interim analysis of the data was conducted following completion of the first treatment period.
The study comprised 155 men, aged 19 to 60, presenting with PE as defined in the DSM IV. All patients were involved in a stable monogamous sexual relationship of at least 6 months duration and reported a history of intravaginal ejaculatory latency (hereinafter referred to as “EL”) of less than 2 minutes in greater than half of their intercourse experiences. History of significant cardiovascular disease or psychiatric disorder, uncontrolled hypertension, erectile dysfunction, and substance abuse were criteria for exclusion.
(§1) During a lead-in period (maximum of 4 weeks), patients were asked to record ejaculatory latency a minimum of 4 times. Latency is defined as the time span, as measured by the patient's partner via a stopwatch, from vaginal intromission to ejaculation. At the completion of the lead-in period, patients were randomized to treatment with either 20 mg or 40 mg dapoxetine or placebo. Study medication was to be ingested 1 to 3 hours prior to a planned intercourse event. The time study drug was taken and time of intercourse were recorded in an event log. Patients were instructed to attempt intercourse at least 4 times over the 4 week treatment period and were issued a sufficient supply of medication to complete 6 attempts at intercourse. The outcome of each attempt (success of intromission and EL) was recorded in the event log initialed by the patient and their partner. Patients returned to the study clinic for a follow-up visit after 4 to 6 attempts at intercourse were completed. At visits 4, 5, and 6 patients were asked to answer the Global Satisfaction Questions and to complete the PEQ.
Of the 155 patients randomized, 145 completed the treatment period. 54 patients were randomized to the placebo group, while 56 and 45 received 20 mg or 40 mg dapoxetine respectively. Although patients were randomly assigned to treatment sequences in blocks of 6, the imbalance in the number of patients randomized to each group was due to the random distribution of the 40 mg assignment to later allocations within the blocks. The intent-to-treat population was comprised of 143 patients, each of whom had baseline and follow-up data for analysis. Analysis of EL was conducted on the 138 patients who had latency data at baseline and at least one post-medication event. The percentage of patients with data sufficient for inclusion in the analysis of EL was lower in the 40 mg group than in either of the other 2 groups. This difference may be attributable to the smaller size of the 40 mg group, such that each patient represents a greater percentage of the whole, rather than being a function of the dose administered. […]

[2] = tested on: men presenting with premature ejaculation (PE) as defined in the DSM IV; assay: Global Satisfaction Question in the crossover evaluation of prn dapoxetine; type: in vivo, human
Description: The patient-perceived-benefit of prn dosing method with dapoxetine, or a pharmaceutically acceptable salt thereof, can be determined, for example, through administration of a global satisfaction question, such as:
“How would you complete the following statement?
The new bottle of medication that I received at my previous visit made my premature ejaculation problem:
Measures for “ejaculatory latency” and “number of thrusts prior to ejaculation” should be recorded as the average of the 4-6 events recorded in the event logs for that treatment period. Subjects who ejaculated prior to intromission should have a zero recorded for both “ejaculatory latency” and “number of thrusts prior to ejaculation.” “Measures for Subject and Partner satisfaction scores (global impression)” and “Subject and Partner ejaculatory (or sexual) quality-of-life questionnaire” for each treatment period should be based on the score collected at the visit immediately following each treatment period.
as §1
The results of a final analysis of a randomized, double-blind, three way crossover evaluation of two prn doses of dapoxetine (20 mg and 40 mg) in the treatment of premature ejaculation are disclosed in the following tables. The final analyses of the data was conducted following completion of all 3 treatment periods.

[3] = Plasma concentration profile in volunteers (FIG. 1); type: in vivo, human; conditions: 20 volunteers, 40 mg dapoxetine at time zero of the 14th day of daily dosing
[4] = tested on: patients (premature ejaculation); conditions: fluoxetine continuous then prn dosing; cited from earlier work
[5] = tested on: patients suffering from premature ejaculation; conditions: 26 patients, cited from earlier work
[6] = tested on: patients (premature ejaculation); conditions: cited from earlier work
[7] = tested on: potent men with premature ejaculation; conditions: 37 men, 50 mg oral sertraline; cited from earlier work
[8] = final analysis, all patients, 20 mg prn
[9] = final analysis, all patients, 40 mg prn
[10] = patients with baseline less than one minute, 20 mg prn
[11] = patients with baseline less than one minute, 40 mg prn
[12] = patients with baseline less than two minutes, 20 mg prn
[13] = patients with baseline less than two minutes, 40 mg prn
[14] = patients with baseline ≧ one minute, 40 mg prn
[15] = patients with baseline ≧ two minutes, 40 mg prn

Q: For `CN(C)[C@@H](CCOc1cccc2ccccc12)c1ccccc1` [Dapoxetine, (S)-(+)-N,N-Dimethyl-1-phenyl-3-(1-naphthalenyloxy)-propanamine], which “Ejaculatory Latency (LS Mean)” value ([1]; "Moderate" patients, baseline 1.68, 20 mg prn) is on record?
A: 2.64 min

Q: What about the “Ejaculatory Latency (LS Mean)” value ([1]; "Moderate" patients, baseline 1.68, 40 mg prn) of the same molecule?
A: 2.93 min

Q: What about the “Change in Latency (LS Mean)” value ([1]; "Moderate" patients, 20 mg prn) of the same molecule?
A: 0.94 min

Q: What about the “Change in Latency (LS Mean)” value ([1]; "Moderate" patients, 40 mg prn) of the same molecule?
A: 1.27 min

Q: And the “Ejaculatory Latency (LS Mean)” value ([1]; "Severe" patients, baseline 1.23, 20 mg prn)?
A: 2.60 min

Q: What about the “Ejaculatory Latency (LS Mean)” value ([1]; "Severe" patients, baseline 1.23, 40 mg prn) of the same molecule?
A: 3.09 min

Q: And the “Change in Latency (LS Mean)” value ([1]; "Severe" patients, 20 mg prn)?
A: 1.42 min

Q: And the “Change in Latency (LS Mean)” value ([1]; "Severe" patients, 40 mg prn)?
A: 1.93 min

Q: And the “Change in Latency (LS Mean)” value [1, 8]?
A: 1.43 min

Q: What about the “Ejaculatory Latency (LS Mean)” value [1, 8] of the same molecule?
A: 2.78 min

Q: And the “Change in Latency (LS Mean)” value [1, 9]?
A: 1.86 min

Q: And the “Ejaculatory Latency (LS Mean)” value [1, 9]?
A: 3.19 min

Q: What about the “Ejaculatory Latency (LS Mean)” value ([1]; final analysis, patients with baseline less than one minute, 20 mg prn) of the same molecule?
A: 1.2 min

Q: What about the “Ejaculatory Latency (LS Mean)” value ([1]; final analysis, patients with baseline less than one minute, 40 mg prn) of the same molecule?
A: 1.7 min

Q: What about the “Treatment of premature ejaculation with the first dose (in words)” value ([1]; first dose administered, no lead-in period (Table 12)) of the same molecule?
A: can effectively and unexpectedly treat premature ejaculation with the first dose administered to a patient

Q: And the “Ejaculatory latency, Mean ± S.D.” value ([1]; interim analysis, follow-up, first treatment period, 20 mg prn, 50 patients)?
A: 2.3 ± 2.26 min

Q: What about the “Ejaculatory latency, Mean ± S.D.” value ([1]; interim analysis, follow-up, first treatment period, 40 mg prn, 37 patients) of the same molecule?
A: 2.3 ± 2.19 min

Q: What about the “Ejaculatory latency, Range” value ([1]; interim analysis, follow-up, 20 mg prn) of the same molecule?
A: 0.1 to 11.4 min

Q: What about the “Ejaculatory Latency (LS Mean)” value ([1]; interim analysis, follow-up, 20 mg prn, adjusted for baseline and sample size) of the same molecule?
A: 2.41 min

Q: What about the “Ejaculatory latency, Range” value ([1]; interim analysis, follow-up, 40 mg prn) of the same molecule?
A: 0.0 to 9.8 min

Q: And the “Ejaculatory Latency (LS Mean)” value ([1]; interim analysis, follow-up, 40 mg prn, adjusted for baseline and sample size)?
A: 2.52 min

Q: What about the “Ejaculatory latency, Range” value ([1]; interim analysis, follow-up, 20 & 40 mg combined) of the same molecule?
A: 0.0 to 11.4 min

Q: What about the “Ejaculatory latency, Mean ± S.D.” value ([1]; interim analysis, follow-up, 20 & 40 mg combined, 87 patients) of the same molecule?
A: 2.3 ± 2.22 min

Q: And the “Percentage of patients achieving increases of at least one minute in EL” value ([1]; interim analysis, 20 mg prn)?
A: 22%

Q: And the “Increase of mean ejaculatory latency from baseline” value ([1]; interim analysis, 20 mg prn)?
A: one

Q: What about the “Percentage of patients achieving increases of at least one minute in EL” value ([1]; interim analysis, 40 mg prn) of the same molecule?
A: 24%

Q: And the “Increase of mean ejaculatory latency from baseline” value ([1]; interim analysis, 40 mg prn)?
A: one

Q: What about the “Change in Latency (LS Mean)” value [1, 10] of the same molecule?
A: 0.6 min

Q: What about the “Change in Latency (LS Mean)” value [1, 11] of the same molecule?
A: 1.3 min

Q: And the “Change in Latency (LS Mean)” value [1, 12]?
A: 1.4 min

Q: What about the “Ejaculatory Latency (LS Mean)” value [1, 12] of the same molecule?
A: 2.4 min

Q: What about the “Change in Latency (LS Mean)” value [1, 13] of the same molecule?
A: 1.5 min

Q: What about the “Ejaculatory Latency (LS Mean)” value [1, 13] of the same molecule?
A: 2.5 min

Q: What about the “Ejaculatory Latency (LS Mean)” value ([1]; patients with baseline ≧ one minute, baseline 1.90, 40 mg prn) of the same molecule?
A: 4.24 min

Q: What about the “Change in Latency (LS Mean)” value [1, 14] of the same molecule?
A: 2.40 min

Q: And the “Ejaculatory Latency (LS Mean)” value ([1]; patients with baseline ≧ two minutes, baseline 3.19, 40 mg prn)?
A: 6.59 min

Q: And the “Change in Latency (LS Mean)” value [1, 15]?
A: 3.43 min

Q: What about the “Ejaculatory Latency (LS Mean)” value ([1]; recorded after administration of a single dose, 20 mg) of the same molecule?
A: 2.37 ± 0.24 min

Q: What about the “Ejaculatory Latency (LS Mean)” value ([1]; recorded after administration of a single dose, 40 mg) of the same molecule?
A: 1.98 ± 0.27 min

Q: What about the “Global Satisfaction: Better/Much Better” value ([2]; "Moderate" patients, 20 mg prn) of the same molecule?
A: 34.4%

Q: What about the “Global Satisfaction: ≧Slightly Better” value ([2]; "Moderate" patients, 20 mg prn) of the same molecule?
A: 51.6%

Q: And the “Global Satisfaction: Better/Much Better” value ([2]; "Moderate" patients, 40 mg prn)?
A: 50%

Q: What about the “Global Satisfaction: ≧Slightly Better” value ([2]; "Moderate" patients, 40 mg prn) of the same molecule?
A: 66.7%

Q: What about the “Global Satisfaction: Better/Much Better” value ([2]; "Severe" patients, 20 mg prn) of the same molecule?
A: 17.2%

Q: What about the “Global Satisfaction: ≧Slightly Better” value ([2]; "Severe" patients, 20 mg prn) of the same molecule?
A: 48.5%

Q: And the “Global Satisfaction: Better/Much Better” value ([2]; "Severe" patients, 40 mg prn)?
A: 25.5%

Q: And the “Global Satisfaction: ≧Slightly Better” value ([2]; "Severe" patients, 40 mg prn)?
A: 54.1%

Q: What about the “Global Satisfaction: Better/Much Better” value [2, 10] of the same molecule?
A: 13%

Q: What about the “Global Satisfaction: ≧Slightly Better” value [2, 10] of the same molecule?
A: 38%

Q: What about the “Global Satisfaction: Better/Much Better” value [2, 11] of the same molecule?
A: 24%

Q: And the “Global Satisfaction: ≧Slightly Better” value [2, 11]?
A: 46%

Q: What about the “Global Satisfaction: Better/Much Better” value [2, 12] of the same molecule?
A: 23%

Q: What about the “Global Satisfaction: ≧Slightly Better” value [2, 12] of the same molecule?
A: 50%

Q: What about the “Global Satisfaction: Better/Much Better” value [2, 13] of the same molecule?
A: 29%

Q: What about the “Global Satisfaction: ≧Slightly Better” value [2, 13] of the same molecule?
A: 50%

Q: And the “Global Satisfaction: Better/Much Better” value [2, 14]?
A: 36.4%

Q: And the “Global Satisfaction: ≧Slightly Better” value [2, 14]?
A: 65.0%

Q: And the “Global Satisfaction: Better/Much Better” value [2, 15]?
A: 39.1%

Q: What about the “Global Satisfaction: ≧Slightly Better” value [2, 15] of the same molecule?
A: 65.2%

Q: And the “Plasma concentration profile (in words)” value [3]?
A: rapid-onset to reach peak plasma concentration followed by rapid metabolism (i.e. short half-life)

Q: For `CNCCC(Oc1ccc(C(F)(F)F)cc1)c1ccccc1` (stereo not drawn) [fluoxetine], which “Patients initially improved with continuous dosing that lost benefit after switching to prn dosing” value [4] is on record?
A: 100%

Q: With `Fc1ccc([C@@H]2CCNC[C@H]2COc2ccc3c(c2)OCO3)cc1` [paroxetine] as the molecule, how does the “Ejaculatory latency (in words)” value ([5]; prn 20 mg paroxetine tablet 3-4 hours prior to intercourse) read?
A: statistically significant increase in ejaculatory latency in the second through fourth weeks of paroxetine treatment but not in the first week

Q: And the “Frequency of intercourse (in words)” value ([5]; prn 20 mg paroxetine)?
A: significantly increased only after 3 weeks of prn paroxetine therapy

Q: What about the “Patients with improved ejaculatory latency” value ([6]; 20 mg prn paroxetine) of the same molecule?
A: 42%

Q: And the “Patients initially improved with continuous dosing that lost benefit after switching to prn dosing” value ([6]; paroxetine continuous then prn dosing)?
A: 37%

Q: With `CN[C@H]1CC[C@@H](c2ccc(Cl)c(Cl)c2)c2ccccc21` [sertraline] as the molecule, how does the “Conclusion on treatment of premature ejaculation (in words)” value [7] read?
A: appeared to be a useful and well tolerated oral treatment for premature ejaculation after 1 to 2 weeks

Reference: patent publication US7718705B1, “Methods of using rapid-onset selective serotonin reuptake inhibitors for treating sexual dysfunction” (Eli Lilly and Company, priority 2000, dated 2010)
